According to patent US20230233687A1, “HYALURONIC ACID-BASED FORMULATIONS FOR TREATMENT AND PREVENTION OF OCULAR HYPERTENSION AND GLAUCOMA” (I.COM MEDICAL GMBH, priority 2020, published 2023):

Tests used:
[1] = Pre-test: latanoprost dissolved in the HA vehicle (HPLC); format: physicochemical; settings: vehicle 0.15% w/v hylan A in phosphate buffered saline pH 7.4, 25 or 50 μg/ml added, stirred 18 hours at 40° C.
Experimental: Sterile bulk solution for the production of COMFORT SHIELD® MDS eye drops (i.com medical GmbH, Munich, Germany) was used as vehicle for the preparation of prototype latanoprost bulk solution (PLBS). The vehicle contained 0.15% w/v hylan A (HA with 2.9 m^3/kg intrinsic viscosity) dissolved in phosphate buffered saline solution (8.035 g/l NaCl; 1.2 mmol/l Na2HPO4/NaH2PO4; pH 7.4). Latanoprost was obtained from Yonsung Fine Chemicals Co. Ltd., Gyeonggi-do, Republic of Korea. PLBS was prepared by medi-pharm Laboratorium GmbH, Falkensee, Germany by dissolving 20±1 μg/ml latanoprost in the vehicle.
In a pre-test 25 μg/ml and 50 μg/ml latanoprost were added to the vehicle and the solution stirred for 18 hours at 40° C. The latanoprost content was determined by HPLC using a Hypersil B D S C18 […], 150.0×4.0 mm column (VDS optilab) and a UV detector (200 nm).

[2] = PubChem CID 5311221; cited from earlier work

- latanoprost dissolved in the vehicle [1]: 20.8 µg/mL
Structure (SMILES): CC(C)OC(=O)CCC/C=C\C[C@@H]1[C@@H](CC[C@@H](O)CCc2ccccc2)[C@H](O)C[C@@H]1O [latanoprost]
- solubility of latanoprost in water [2]: 12.9 µg/mL
